Measured values: PubChem BioAssay (NCI)
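Following 48 hours of exposure in 96-well plates, responses at five concentrations were used to interpolate endpoints linearly. TGI marks complete inhibition of growth.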

How the values were obtained:
Assay in all cases: NCI tumour cell line growth inhibition, 48 h
[1] = system: NCI/ADR-RES ovarian
[2] = system: HCT-116 colon
[3] = system: OVCAR-4 ovarian
[4] = system: HOP-92 NSCLC
[5] = system: SF-539 CNS
[6] = system: NCI-H226 lung

SMILES | TGI [1] | TGI [2] | TGI [3] | TGI [4] | TGI [5] | TGI [6]
CC(=O)N(C(C)=O)c1ncc(-n2nc(-c3ccccc3)cc2-c2ccccc2)c(-c2ccccc2)n1 | > 10 µM | > 10 µM | > 10 µM | > 10 µM | > 10 µM | > 10 µM
O=[N+]([O-])C[C@@]12O[C@]3(O)C4C5CC(C6C5C3C61)C42 (some centres not stated) | > 100 µM | > 100 µM | > 100 µM | > 100 µM | > 100 µM | > 100 µM
[N-]=[N+]=Nc1c([N+](=O)[O-])c(=O)n(-c2ccccc2)c2ccccc12 | 79.7 µM | 51.3 µM | 49.4 µM | 86.9 µM | 47.1 µM | 96.9 µM
O=C1c2ccccc2C(=O)c2c(NCC(O)CO)ccc(NCC(O)CO)c21 (configuration not stated) | > 100 µM | > 100 µM | > 100 µM | – | > 100 µM | > 100 µM
COC(=O)C1=C(OC(=O)/C(=C/c2ccc(Cl)cc2)c2ccc(Cl)cc2)C(C(=O)OC)[C@@]2(O)[C@@H](C(=O)OC)[C@H](C)C[C@@H]1[C@@H]2C(=O)OC (some centres not stated) | > 100 µM | > 100 µM | > 100 µM | > 86.9 µM | > 100 µM | > 100 µM
CO[C@@]12C[C@@H](C)C3=CCC(C)=C3CC1=C(C)C(=O)O2 | > 100 µM | > 100 µM | > 100 µM | > 100 µM | – | > 100 µM
COc1cccc(C(=O)Oc2ccc(OS(=O)(=O)c3ccc(C)cc3)cc2)c1C#N | > 100 µM | > 100 µM | > 100 µM | > 100 µM | > 100 µM | > 100 µM
CC1(C)CC(=O)C(C=NC(=S)c2ccccc2)=C(O)C1 | > 100 µM | > 100 µM | > 100 µM | > 100 µM | > 100 µM | > 100 µM
O=[N+]([O-])c1ccc2[nH]c(=S)[nH]c(=S)c2c1 | > 100 µM | > 100 µM | > 100 µM | > 100 µM | > 100 µM | > 100 µM
C=CCn1c(N)c(C#N)c(C#N)c1-c1ccccc1 | > 100 µM | – | > 100 µM | > 100 µM | > 100 µM | > 100 µM
COC(=O)C1=C(C(=O)OC)N(c2ccc(OC)cc2[N+](=O)[O-])C(c2ccc(C)cc2)=CC1c1ccc(OC)cc1OC (configuration not stated) | > 77.8 µM | > 100 µM | > 100 µM | > 100 µM | 20.8 µM | 49.9 µM
O=C1Nc2cccc(Cl)c2/C1=C\c1c(Cl)nc2n1CCS2 | > 100 µM | > 100 µM | – | > 100 µM | > 100 µM | –
CCn1c(-c2ccccc2)cs/c1=N\C(P(=O)(O)O)P(=O)(O)O | > 100 µM | > 100 µM | – | > 100 µM | > 100 µM | > 100 µM
CO/N=C(\C)c1ccc(Nc2nc3ccccc3c3occc23)cc1 | 32.1 µM | 27.9 µM | – | 27.6 µM | 27.5 µM | 24 µM
BrC1=C(Br)C2(SCCS2)[C@H]2C[C@@H]1c1ccccc12 | > 100 µM | > 100 µM | > 100 µM | > 100 µM | > 100 µM | > 100 µM
Cc1c(C)c2c(c(N)c1C#N)C(=O)N(NC(=O)c1ccccc1)C2=O | > 100 µM | > 100 µM | > 100 µM | > 100 µM | > 100 µM | > 100 µM
O=C1Sc2cc3ccccc3cc2C(=O)Sc2ccc(Br)cc21 | 15.6 µM | 16.3 µM | 35.2 µM | 20.9 µM | 27 µM | 42.6 µM
CC(=O)c1ccccc1NP(=O)(c1ccccc1)c1ccccc1 | > 100 µM | > 100 µM | > 100 µM | – | > 100 µM | –
COc1cccc(CCNC(=O)Cc2ccccc2CCO)c1 | > 100 µM | > 100 µM | > 100 µM | > 100 µM | > 100 µM | > 100 µM
O=C1COc2cccnc2N1CCCCO | – | > 100 µM | – | > 100 µM | > 100 µM | –
CCCCCCNc1n[nH]c(=O)c2c1nnn2Cc1ccccc1 | > 100 µM | > 100 µM | > 100 µM | > 100 µM | – | –
C=CCCON(C(=O)OC(C)(C)C)C(C)(C)C | > 100 µM | > 100 µM | – | > 100 µM | > 100 µM | > 100 µM
O=C(O)CCCc1nc2c(n1Cc1ccccc1)C(=O)c1ccccc1C2=O | > 100 µM | > 100 µM | 77.8 µM | > 100 µM | > 100 µM | –
COc1cc(OC)cc(Oc2nc3ccccc3nc2C(F)(F)F)c1 | > 100 µM | > 100 µM | > 100 µM | > 100 µM | > 100 µM | > 100 µM

SMILES | TGI [1] | TGI [2] | TGI [3] | TGI [4] | TGI [5] | TGI [6]
CCN(CC)Cc1ccc(C(=S)Nc2ccc(Cl)cc2)s1 | 25 µM | 22.9 µM | 34.6 µM | – | 31.6 µM | –
N#Cc1n[nH]n(-c2ccc(Br)cc2)c1=O | > 100 µM | > 100 µM | > 100 µM | – | > 100 µM | > 100 µM
COC(=O)/C=C(\C(=O)OC)C1C(=O)Oc2c(C)c(=O)c3ccccc3n21 (configuration not stated) | > 100 µM | > 100 µM | > 100 µM | – | > 100 µM | > 100 µM
C[C@H]1[C@H]2[C@H]3CC[C@@H]4[C@@]5(C)CC[C@H](O)C(C)(C)[C@@H]5CC[C@@]4(C)[C@]3(C)C[C@H](O)[C@@]2(C)C[C@H]2O[C@]21C | 51.8 µM | 36.3 µM | > 100 µM | 56.2 µM | 39 µM | –
Cc1ccc2c(c1)C(=S)N1CSCC1c1nncn1-2 (configuration not stated) | > 100 µM | > 100 µM | > 100 µM | – | – | > 100 µM
CCCNC(=O)NNC(=O)c1c[nH]c2nc(C)ccc2c1=O | > 100 µM | > 100 µM | > 100 µM | – | – | > 100 µM
NC(N)=NS(=O)(=O)c1ccc(NNc2c3ccccc3nc3c(C(=O)Nc4ccc(S(=O)(=O)Nc5ncccn5)cc4)cccc23)cc1 | > 100 µM | 78.1 µM | > 100 µM | > 100 µM | > 100 µM | –
O=c1oc2ccccc2cc1-c1cc2ccccn2c1 | > 100 µM | > 100 µM | > 100 µM | > 100 µM | – | > 100 µM
N=C(N)C1CN(CCc2c[nH]c3ccccc23)C(=O)NC1=O (configuration not stated) | > 100 µM | > 100 µM | > 100 µM | > 100 µM | – | > 100 µM
CCO/C(O)=C(/C(=N)N1CCOCC1)C(=O)Nc1ccc(F)cc1 | > 100 µM | > 100 µM | > 100 µM | – | – | > 100 µM
COc1cc(C2C3C=CC=C4CC=CC(=C43)C3CCC(=O)N32)cc(OC)c1OC (configuration not stated) | 69.8 µM | > 100 µM | – | > 100 µM | > 100 µM | 36.3 µM
CC1(C)[C@@H](Cn2ccc(=O)[nH]c2=O)CC[C@@]1(C)CO | > 100 µM | > 100 µM | > 100 µM | > 100 µM | – | > 100 µM
CC(=O)OC(OC(C)=O)c1ccc2ccc3cccc4ccc1c2c34 | > 100 µM | 52.4 µM | – | 42.3 µM | > 100 µM | 8.43 µM
COc1cc(OC)c2nc(C)c(CCCl)c(Cl)c2c1 | > 100 µM | > 100 µM | > 100 µM | – | > 100 µM | > 100 µM
COC(=O)c1c(O)ccc2c1c1c(n2Cc2cc(OC)cc(OC)c2)C(=O)c2ccccc2C1 | 63.1 µM | > 100 µM | 44.8 µM | – | > 100 µM | > 100 µM
O=C1C=CC(=O)c2c1ccc1c3ccccc3n(CCCCCn3c4ccccc4c4ccc5c(c43)C(=O)C=CC5=O)c21 | > 64.9 µM | 25.7 µM | – | 35.6 µM | 33.9 µM | > 100 µM
CN=C(n1ccnc1)n1ccnc1 | > 100 µM | > 100 µM | > 100 µM | – | > 100 µM | > 100 µM
c1ccc(N=C(N2CCCC2)N(CCN2CCCC2)c2ccccc2)cc1 | > 100 µM | > 100 µM | > 100 µM | > 100 µM | – | > 100 µM
O=C1/C(=C/c2ccc(Br)s2)NC(=S)N1c1ccccc1 | – | > 100 µM | > 100 µM | 71.6 µM | – | > 100 µM
CN1CCc2c([nH]c3ccccc23)C1 | > 100 µM | > 100 µM | > 100 µM | – | – | > 100 µM
CC1=NN(c2nc(N)nc(/C(C#N)=C\c3ccc([N+](=O)[O-])s3)n2)C(C)(C)C1 | 12.8 µM | 1.23 µM | 12.1 µM | – | 0.467 µM | 8.18 µM
CC1(C)/C(=N\NC(N)=O)C2CCC1C2 (configuration not stated) | > 100 µM | > 100 µM | > 100 µM | > 100 µM | – | > 100 µM
O=[N+]([O-])c1ccc(CN(CCCl)OCCCl)cc1 | > 100 µM | > 100 µM | > 100 µM | – | > 100 µM | > 100 µM
CC1CC(OP(=O)(OCc2ccccc2)OCc2ccccc2)[C@@H](OCc2ccccc2)C(OCc2ccccc2)C1OCc1ccccc1 (some centres not stated) | > 100 µM | > 100 µM | > 100 µM | – | > 100 µM | > 100 µM
